The values below come from patent US20120202814A1, “COMPOUNDS WITH DDX3 INHIBITORY ACTIVITY AND USES THEREOF” (UNIVERSITÀ DEGLI STUDI DI SIENA, priority 2009, published 2012).

Read-outs that look alike come from different tables or passages of the source. Some results are limits rather than exact numbers.

Data set [1] relates to HIV-1. In words: Antiviral assay, HIV-1 replication in infected PBMCs (viral RNA in supernatant). It is filed as cell-based. Conditions: for EC50: Human immunodeficiency virus 1, PBMC; for viral RNA, multiple rounds of replication: PBMC, wild type HIV-1, 5 days post infection, FE15 50 μM, FE66 (35b) 5 μM. Here is the method: (§1) FIG. 1. A) Antiviral activity (expressed as % of viral load with respect to the control) of compounds FE56 and FE66 at 0.3 μM and 3 μM doses against single round HIV-1 replication in HeLaCD4+ cells infected with a wild type HIV-1 strain. Measurements were performed at 72 h post infection. B) Antiviral activity of compounds FE15 and FE66 on HIV-1 replication in phytohemagglutinin-stimulated peripheral blood mononuclear cells (PBMCs) […] with HeLa CD4^+-cell culture supernatants containing wild type HIV. Compounds were tested at 50 μM (FE15) and 5 μM (FE66). The HIV-1 RNA was quantified in the cell culture supernatant after 3, and 5 days of incubation. Results are expressed as HIV RNA copies/ml. Control (white bars).
FIG. 2. Antiviral activity of DDX3 inhibitors. A) Comparison of the antiviral activity (expressed as % of viral RNA with respect to the control) on infected PBMCs of a fixed dose of selected inhibitors. Measurements were performed at 72 h post infection. Values are the means of three independent replicates. Error bars are ±SD. White bars: control without drugs; dark grey bar: positive control with AZT (0.01 μM); black bar: first generation inhibitor FE15 (50 μM); light grey bars: second generation DDX3 inhibitors FE66, 11d and 38 (3 μM). B) Dose-response curves for the inhibiton of HIV-1 replication (expressed as % of viral RNA with respect to the control) in infected PBMCs by FE15 (circles) and 38 (triangles). Measurements were performed at 72 h post infection. Values are the means of three independent replicates. Error bars are ±SD.
In detail, 0.5 μg of each HIV-1 plasmid construct was transfected into CD4 HeLa cells by using the lipofectin reagent, according to the recommendations of the manufacturer (Invitrogen, Groningen, The Netherlands). After 3 days of incubation at 37° C., the cell supernatants, which contained reconstituted viable recombinant viruses, were collected. Quantification of the newly produced recombinant strains was obtained by determination of the HIV RNA copy number in the cell culture supernatants. Successively, 10 ml of transfected HeLa CD4^+-cell culture supernatants containing wild-type, and mutated recombinant HIV strain […], was used to infect aliquots of 10×10^6 phytohemagglutinin-stimulated peripheral blood mononuclear cells (PBMCs) from HIV-seronegative blood donors. After 4 h of incubation, supernatants were removed and infected PBMCs were incubated at 37° C. in 10 ml of RPMI 1640 medium (Eurobio, Les Ulis Cedex B, France) supplemented with 20% fetal calf serum (Life Technologies, Ltd., Paisley, Scotland), 2 mM l-glutamine, 100 U of penicillin per ml, 100 μg of streptomycin per ml, 10% interleukin-2 (ZeptoMetrix Co., Buffalo, N.Y.), 5 μg of hydrocortisone (Sigma Chemical Co.) per ml and with fourfold dilutions of antiretroviral drugs. No-drug controls for each drug dilution were included in each assay. After 3, 5 and 7 days of incubation the HIV-1 RNA in the cell culture supernatant was quantified. Recombinant HIV-1 strains from treatment-naive patients and multidrug resistance-associated changes were assayed in parallel. The degree of inhibition of viral replication was measured by determining the HIV-1 RNA level in the supernatants of cell cultures and was expressed as the fold increase in the 50% inhibitory concentrations (IC50s) for resistant recombinant HIV-1 variants compared with the IC50s for the wild-type recombinant variant. Each test was performed in triplicate.

Data set [2] in a line: Cell viability / cytotoxicity on PBMCs. Conditions: human; PBMCs; Table 2 prints no unit; read-out: Cytotoxicity (CC50) PBMCs, dose required to reduce 50% cell vitality. The data set is classed as cell-based. An excerpt:
(§2) Cell viability in the presence of the compounds has been determined by standard MTT assays.

The test system of data set [3] is PBMCs. The experiment in a line: Cell viability / cytotoxicity on PBMCs. It is filed as cell-based. Conditions: PBMCs CC50 / antiviral EC50.
Description: as §2

Data set [4] concerns wild type HIV-1 strain. The experiment in a line: HIV-1 single round replication in HeLaCD4+ cells. The data set is classed as cell-based. As to conditions: wild type HIV-1, 0.3 μM and 3 μM doses, 72 h post infection. Here is the method:
as §1
Selected compounds from Table 1 were tested against HIV-1 replication in two different model systems.

Data set [5] addresses T1, human DDX3 (ATPase activity) (Homo sapiens, UniProt O00571).
T1 construct: made in house; host or cells: E. coli
In words: Human DDX3 ATPase activity assay (luciferase-based luminescence). It is filed as biochemical. Conditions: DDX3 ATPase activity; read-out: Ki (μM), apparent equilibrium dissociation constant for the inhibitor to the target enzyme DDX3. On the procedure:
ATPase activity was tested with a luciferase-based luminescence assay (Easylite-Kinase, Perkin Elmer) on 96 wells microtiter plates. Briefly, recombinant purified human DDX3 (50-100 ng) was incubated in a 15 μL total reaction volume with reaction buffer (25 mM TrisHCl pH 7.5, 5 mM MgCl2), in the presence of increasing amounts of ATP and/or different combinations of ATP and the inhibitor to be tested. Reference curves in the absence of inhibitor (giving the 100% of enzymatic activity) and in the absence of enzyme (giving the baseline), were also included in each experiment. Reading was performed with a Microbeta Trilux (Perkin Elmer) luminometer, according to the manufacturer's protocol.
ATPase reactions were performed as described, in the presence of increasing amounts of inhibitor and variable ATP concentrations. Variations of the initial velocities of the reaction as a function of ATP concentrations in the absence or presence of 4 were analyzed with the equation: […]
Variation of the % inhibition as a function of compound FE15 at different ATP concentrations were fitted to the equation for cooperative binding: […]
where Vmax is the apparent maximal rate of the reaction in the absence of the inhibitor, [I] is the variable inhibitor concentration, n is the cooperativity index and Ki(app) is the apparent inhibition constant. Comparatively, fitting was done with the same Eq. (2) where n was kept fixed at the value of 1 (non-cooperativity hypothesis). F test was used to compare the two fittings and p value was calculated.
Human recombinant DDX3 was cloned, expressed and purified as described (Franca et al. Proteins 2007, 67, 1128-37).
The anti-DDX3 activity of the compounds of the invention was evaluated by in vitro ATPase activity assay using the recombinant human DDX3 protein produced in E. coli. The potency of inhibition (Ki) for each molecule was calculated, representing the concentration of the inhibitor able to reduce the DDX3 ATPase activity by 50%

In data set [6] the test system is cervical cancer HeLa cell line. In words: Antiproliferative activity against HeLa cells (CellTiter viability assay). It is filed as cell-based. As to conditions: Homo sapiens. Here is the method: (§3) Selected compounds from Table 1 were tested against the cervical cancer HeLa cell line for antiproliferative activity. Cell viability was measured with the CellTiter viability assay (Table 2). Table 3 lists the calculated antiproliferative potencies (EC50, dose required to suppress 50% of cell viability) for a series of representative compounds of the invention.

Data set [7] has as its system MOLT-4. In words: Cell viability / cytotoxicity on MOLT-4 cells. It is filed as cell-based. As to conditions: MOLT-4 CC50 / antiviral EC50.
Description: as §2

Data set [8] is described as follows: Cell viability / cytotoxicity on MOLT-4 cells. As to conditions: human, MOLT-4 cells; MOLT-4; Table 2 prints no unit; read-out: Cytotoxicity (CC50) MOLT-4, dose required to reduce 50% cell vitality. The data set is classed as cell-based.
Description: as §2

For data set [9], the system named is HeLa cells. In words: Cell viability / cytotoxicity on HeLa cells. Conditions: for Selectivity index HeLa, CC50/EC50: HeLa CC50 / antiviral EC50. The data set is classed as cell-based. Here is the method: as §2, §3
A short description of data set [10]: Cell viability / cytotoxicity on HeLa cells. The data set is classed as cell-based. As to conditions: human, HeLa cells (cervical cancer cell line). Here is the method:
as §2, §3

The mark [11] stands for this setting: 72 h, read-out: EC50, anti-HIV activity.
[12] abbreviates: read-out: Antiviral activity, dose required to reduce 50% viral proliferation (measured as viral RNA load).
Where [13] appears, read: HeLa, Table 2 prints no unit, text gives μM, read-out: Cytotoxicity (CC50) HeLa, dose required to reduce 50% cell vitality.

T1 sequence (O00571 whole entry): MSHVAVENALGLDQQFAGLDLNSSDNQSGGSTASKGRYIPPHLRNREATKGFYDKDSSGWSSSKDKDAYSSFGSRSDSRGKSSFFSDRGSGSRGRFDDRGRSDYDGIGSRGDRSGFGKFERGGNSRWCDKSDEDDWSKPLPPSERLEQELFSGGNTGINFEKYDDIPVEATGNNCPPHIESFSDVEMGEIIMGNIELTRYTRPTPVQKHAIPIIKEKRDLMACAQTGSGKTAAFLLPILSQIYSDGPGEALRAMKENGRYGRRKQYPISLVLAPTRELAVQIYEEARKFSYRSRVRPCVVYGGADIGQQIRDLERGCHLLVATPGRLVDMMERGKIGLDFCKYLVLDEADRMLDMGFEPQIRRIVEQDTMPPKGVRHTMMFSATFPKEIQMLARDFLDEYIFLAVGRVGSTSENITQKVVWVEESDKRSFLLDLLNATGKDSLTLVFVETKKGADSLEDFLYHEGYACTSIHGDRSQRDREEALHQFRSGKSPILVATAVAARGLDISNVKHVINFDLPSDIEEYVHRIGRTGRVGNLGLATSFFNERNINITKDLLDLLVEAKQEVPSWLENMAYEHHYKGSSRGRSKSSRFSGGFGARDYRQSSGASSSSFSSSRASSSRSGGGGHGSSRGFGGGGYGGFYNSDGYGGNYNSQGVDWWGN

The molecule `O=C(CCN1C(=O)/C(=C/c2cccc(F)c2)SC1=S)Nc1ccccc1O` [Compound 35b, 3-((Z)-5-(3-Fluorobenzylidene)-4-oxo-2-thioxothiazolidin-3-yl)-N-(2-hydroxyphenyl) propanamide] had a melting point of 210 to 211 °C. Moreover, the EC50 in [1] (setting [11]) was determined as 7.5 µM. Further, the EC50 in [1] (setting [12]) turned out to be 7.5 ± 0.7 µM. In addition, the “viral RNA, multiple rounds of replication” value in [1] was “significant reduction of viral RNA”. The CC50 in [2] is 50 ± 5 µM. Further, the “Selectivity index PBMCs, CC50/EC50” value in data set [3] was 6.7. Moreover, the “viral load (viral RNA copies), single-round replication” value in data set [4] is “dose-dependent reduction of viral load”. The Ki in data set [5] worked out at 0.3 µM. The EC50 in data set [6] (48 hours, read-out: EC50 (μM) 48 hours, dose required to suppress 50% of cell viability) was found to be 50 µM. For the same molecule, in data set [6] (72 hours, read-out: EC50 (μM) 72 hours, dose required to suppress 50% of cell viability), the EC50 came to 10 µM. Moreover, the “Selectivity index MOLT-4, CC50/EC50” value in [7] worked out at 6.7. In data set [8], the CC50 is 50 ± 10 µM. The “Selectivity index HeLa, CC50/EC50” value in [9] is listed as 6.7. Further, the CC50 in data set [10] (setting [13]) was found to be 50 ± 5 µM.

On to `Oc1ccccc1/C=N/Nc1nc(Nc2ccc(F)cc2)nc(Nc2ccc(F)cc2)n1` [Compound 38, (E)-2-((2-(4,6-bis(4-Fluorophenylamino)-1,3,5-triazin-2-yl)hydrazono)methyl)phenol], for which the “fold higher antiviral potency than the inhibitor FE15” value in data set [1] (HIV-1 infected PBMCs, ratio of EC50) came out at 41 fold. Also, the EC50 came out at 2 µM in data set [1] (setting [11]) and 2 ± 0.2 µM in data set [1] (setting [12]). The CC50 in data set [2] is 8 ± 0.5 µM; in [8], 10 ± 1 µM; in data set [10] (setting [13]) it was 20 ± 2 µM. The “Selectivity index PBMCs, CC50/EC50” value in [3] came to 4.0. Also, in [5], the Ki stood at 0.1 µM. Moreover, in data set [7], the “Selectivity index MOLT-4, CC50/EC50” value was found to be 5.0. Also, in data set [9], the “Selectivity index HeLa, CC50/EC50” value turned out to be 10.

`O=C(CCN1C(=O)/C(=C/c2cccc(Br)c2)SC1=S)Nc1ccccc1O` [FE-15, (Z)-3-(5-(3-Bromobenzylidene)-4-oxo-2-thioxothiazolidin-3-yl)-N-(2-hydroxyphenyl)propanamide]: the melting point was 222 to 224 °C. In addition, the “reduction of viral load compared with 11d and 38 at 3 μM” value in data set [1] (HIV-1 infected PBMCs, compound at 50 μM, 72 h post infection) is reported as “comparable effects”. The EC50 in data set [1] (setting [11]) turned out to be 83 µM. Further, the EC50 in data set [1] (setting [12]) worked out at 83 ± 7 µM. For the same molecule, the “viral RNA, multiple rounds of replication” value in data set [1] is recorded as “significant reduction of viral RNA”. Further, the CC50 in data set [2] is above 150 µM. In data set [3], the “Selectivity index PBMCs, CC50/EC50” value is recorded as 1.8. Further, the Ki in [5] amounted to 4.5 µM. Besides, in data set [7], the “Selectivity index MOLT-4, CC50/EC50” value stood at 2.4. Also, in data set [8], the CC50 was above 200 µM. In addition, the “Selectivity index HeLa, CC50/EC50” value in [9] is listed as 2.4. Moreover, in data set [9] (setting [13]), the CC50 was above 200 µM. The CC50 in data set [10] (read-out: CC50, cytotoxicity on HeLa cells) was above 200 µM.

Take `O=C1Nc2ccccc2/C1=N/Nc1nc(Nc2ccccc2)nc(Nc2ccccc2)n1` [FE-56]: the “viral load (viral RNA copies), single-round replication” value in data set [4] was “dose-dependent reduction of viral load”. For the same molecule, the Ki in [5] is 0.4 µM.

In general, CC50 refers to the concentration giving 50% cytotoxicity. What is called melting point is the temperature, or range, at which the solid turns liquid.
